# Patent US9688695B2, “Imidazothiadiazole and imidazopyrazine derivatives as protease activated receptor 4 (PAR4) inhibitors for treating platelet aggregation” (BRISTOL-MYERS SQUIBB COMPANY, priority 2012, dated 2017)
# Molecular target: PAR4 (Homo sapiens (Human), UniProt Q96RI0)
# Test: FLIPR assay in PAR4-expressing HEK293 cells (PAR4 antagonist activity, calcium mobilization)
# Format: cell-based
# Conditions: H-Ala-Phe(4-F)-Pro-Gly-Trp-Leu-Val-Lys-Asn-Gly-NH2-induced calcium mobilization
# Description: The FLIPR assay is an exemplary in vitro assay for measuring the activity of the PAR4 antagonists of the present invention. In this assay, intracellular calcium mobilization is induced in PAR4 expressing cells by a PAR4 agonist and calcium mobilization is monitored. See, e.g., Example A.
# HEK293 cells stably expressing PAR4 were generated by a standard method of transfection of human […] cDNA expression vector or by RAGE technology from Athersys Inc. (Cleveland, Ohio) and selected based on PAR4 protein expression of mRNA expression. […] These cells express endogenous PAR1 and can elicit calcium signal upon stimulation with PAR1 agonist peptide.
# Counter screens for agonist activity and PAR1 antagonist activity were also performed. Briefly, HEK293 EBNA PAR4 clone 20664.1J cells were plated 24 hrs. prior to experiment in 384 well, Poly-D-Lysine coated, black, clear bottom plates (Greiner Bio-One, Monroe, N.C.). Cells were plated at 20,000 cells/well in […] growth medium and incubated at 37° C. with 5% CO2 overnight. At time of assay, media was replaced with 40 μl 1× Hank's Buffered Saline Solution (HBSS) (with 10 mM HEPES) and 20 μl test compound also diluted in 1×HBSS buffer was added at various concentrations and 0.67% DMSO final concentration on the FDSS for agonist measurement. The cells were then incubated for 30 minutes at room temperature followed by addition of 20 μl of agonist peptide for antagonist measurement on the FDSS.
# As indicated above, the FLIPR assay, an in vitro assay, measures the PAR4 antagonist activity of compounds tested as described in Example A. The PRP assay, an in vitro assay, measures the PAR4 antagonist assay of the compounds tested in the presence of plasma proteins and thrombin agonist as described in Example C.
# Chain of PAR4 (Q96RI0 18-385): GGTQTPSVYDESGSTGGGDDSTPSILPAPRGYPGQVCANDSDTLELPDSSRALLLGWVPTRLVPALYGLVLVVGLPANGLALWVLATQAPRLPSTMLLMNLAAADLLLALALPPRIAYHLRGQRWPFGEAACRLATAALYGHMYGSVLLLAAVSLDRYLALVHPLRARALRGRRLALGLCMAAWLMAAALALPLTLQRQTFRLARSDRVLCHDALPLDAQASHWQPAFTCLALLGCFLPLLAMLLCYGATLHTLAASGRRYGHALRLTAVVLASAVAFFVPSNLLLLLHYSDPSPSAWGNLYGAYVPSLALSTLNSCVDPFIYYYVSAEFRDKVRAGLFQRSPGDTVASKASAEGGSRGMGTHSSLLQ
row,Compound,EC50 [nM]
1,"COc1cc(OCc2csc(C3(O)CCOC3)n2)c2cc(-c3cn4nc(OC)sc4n3)oc2c1 (centres unmarked) [Example 123, 3-(4-(((6-Methoxy-2-(2-methoxyimidazo[2,1-b][1,3,4]thiadiazol-6-yl)benzofuran-4-yl)oxy)methyl)thiazol-2-yl)tetrahydrofuran-3-ol]",0.5
2,"COc1cc(OCc2nc(C3(O)CCOCC3)sc2C)c2cc(-c3cn4nc(OC)sc4n3)oc2c1 [Example 124, 4-(4-(((6-Methoxy-2-(2-methoxyimidazo[2,1-b][1,3,4]thiadiazol-6-yl)benzofuran-4-yl)oxy)methyl)-5-methylthiazol-2-yl)tetrahydro-2H-pyran-4-ol]",0.29
3,"COc1cc(OCc2csc(C3(O)CCC(=O)CC3)n2)c2cc(-c3cn4nc(OC)sc4n3)oc2c1 [Example 128, 4-Hydroxy-4-(4-(((6-methoxy-2-(2-methoxyimidazo[2,1-b][1,3,4]thiadiazol-6-yl)benzofuran-4-yl)oxy)methyl)thiazol-2-yl)cyclohexan-one]",0.35
4,"COc1cc(OCc2csc(C3(O)CCN(C(=O)OC(C)(C)C)CC3)n2)c2cc(-c3cn4nc(OC)sc4n3)oc2c1 [Example 129, tert-Butyl 4-hydroxy-4-(4-(((6-methoxy-2-(2-methoxyimidazo[2,1-b][1,3,4]thiadiazol-6-yl)benzofuran-4-yl)oxy)methyl)thiazol-2-yl)piperidine-1-carboxylate]",0.96
5,"COc1cc(OCc2csc(C3(O)CCN(C(=O)c4ccccc4)CC3)n2)c2cc(-c3cn4nc(OC)sc4n3)oc2c1 [Example 130, (4-Hydroxy-4-(4-(((6-methoxy-2-(2-methoxyimidazo[2,1-b][1,3,4]thiadiazol-6-yl)benzofuran-4-yl)oxy)methyl)thiazol-2-yl)piperidin-1-yl)(phenyl)methanone]",0.4
6,"COc1cc(OCc2nc(C3(F)CCOCC3)sc2C(F)(F)F)c2cc(-c3cn4nc(OC)sc4n3)oc2c1 [Example 132, 6-(4-((2-(4-Fluorotetrahydro-2H-pyran-4-yl)-5-(trifluoromethyl)thiazol-4-yl)methoxy)-6-methoxybenzofuran-2-yl)-2-methoxyimidazo[2,1-b][1,3,4]thiadiazole]",1.9
7,"COc1cc(OCc2csc(C3(O)CCCCC3)n2)c2cc(-c3cn4nc(OC)sc4n3)oc2c1 [Example 133, 1-(4-(((6-Methoxy-2-(2-methoxyimidazo[2,1-b][1,3,4]thiadiazol-6-yl)benzofuran-4-yl)oxy)methyl)thiazol-2-yl)cyclohexanol]",0.37
8,"COc1cc(OCc2csc(C3(F)CCCCC3)n2)c2cc(-c3cn4nc(OC)sc4n3)oc2c1 [Example 134, 6-(4-((2-(1-Fluorocyclohexyl)thiazol-4-yl)methoxy)-6-methoxybenzofuran-2-yl)-2-methoxyimidazo[2,1-b][1,3,4]thiadiazole]",1.2
9,"COc1cc(OCc2csc(C3(O)CCC(F)(F)CC3)n2)c2cc(-c3cn4nc(OC)sc4n3)oc2c1 [Example 135, 4,4-Difluoro-1-(4-(((6-methoxy-2-(2-methoxyimidazo[2,1-b][1,3,4]thiadiazol-6-yl)benzofuran-4-yl)oxy)methyl)thiazol-2-yl)cyclohexanol]",0.79
10,"COc1cc(OCc2csc(C3(F)CCC(F)(F)CC3)n2)c2cc(-c3cn4nc(OC)sc4n3)oc2c1 [Example 136, 2-Methoxy-6-(6-methoxy-4-((2-(1,4,4-trifluorocyclohexyl)thiazol-4-yl)methoxy)benzofuran-2-yl)imidazo[2,1-b][1,3,4]thiadiazole]",1.2
11,CCC(O)(c1nc(COc2cc(OC)cc3oc(-c4cn5nc(OC)sc5n4)cc23)cs1)C(F)(F)F (centres unmarked) [Example 138],0.82
12,CCC(O)(CC)c1nc(COc2cc(OC)cc3oc(-c4cn5nc(OC)sc5n4)cc23)cs1 [Example 140],0.67
13,COc1cc(OCc2csc(C(C)(O)C3CCCCC3)n2)c2cc(-c3cn4nc(OC)sc4n3)oc2c1 (centres unmarked) [Example 142],0.31
14,COc1cc(OCc2csc(C(C)(O)C(F)(F)F)n2)c2cc(-c3cn4nc(OC)sc4n3)oc2c1 (centres unmarked) [Example 143],0.39
15,COc1cc(OCc2csc(C(O)(C3CC3)C3CC3)n2)c2cc(-c3cn4nc(OC)sc4n3)oc2c1 [Example 144],0.26
16,COc1cc(OCc2csc(C(O)(C3CCCCC3)C(F)(F)F)n2)c2cc(-c3cn4nc(OC)sc4n3)oc2c1 (centres unmarked) [Example 146],0.73
17,COCCC(C)(F)c1nc(COc2cc(OC)cc3oc(-c4cn5nc(OC)sc5n4)cc23)cs1 (centres unmarked) [Example 147],0.96
18,"COc1cc(OCc2csc(C3=CCC(C(=O)OC(C)(C)C)CC3)n2)c2cc(-c3cn4nc(OC)sc4n3)oc2c1 (centres unmarked) [Example 148, tert-Butyl 4-(4-(((6-methoxy-2-(2-methoxyimidazo[2,1-b][1,3,4]thiadiazol-6-yl)benzofuran-4-yl)oxy)methyl)thiazol-2-yl)cyclohex-3-enecarboxylate]",0.37
19,"COc1cc(OCc2csc(C3(O)CCC(C(=O)OC(C)(C)C)CC3)n2)c2cc(-c3cn4nc(OC)sc4n3)oc2c1 (centres unmarked) [Example 149, tert-Butyl 4-hydroxy-4-(4-(((6-methoxy-2-(2-methoxyimidazo[2,1-b][1,3,4]thiadiazol-6-yl)benzofuran-4-yl)oxy)methyl)thiazol-2-yl)cyclohexanecarboxylate]",4.1
20,"COc1cc(OCc2csc(C3(O)CCC(C(=O)O)CC3)n2)c2cc(-c3cn4nc(OC)sc4n3)oc2c1 (centres unmarked) [Example 150, 4-Hydroxy-4-(4-(((6-methoxy-2-(2-methoxyimidazo[2,1-b][1,3,4]thiadiazol-6-yl)benzofuran-4-yl)oxy)methyl)thiazol-2-yl)cyclohexanecarboxylic acid]",0.92
21,"COc1cc(OCc2csc(C3(c4ccc(Br)cc4)CCOCC3)n2)c2cc(-c3cn4nc(OC)sc4n3)oc2c1 [Example 153, 6-(4-((2-(4-(4-Bromophenyl)tetrahydro-2H-pyran-4-yl)thiazol-4-yl)methoxy)-6-methoxybenzofuran-2-yl)-2-methoxyimidazo[2,1-b][1,3,4]thiadiazole]",1.7
22,"COc1cc(OCc2csc(C3(c4ccc(Cl)cc4)CCOCC3)n2)c2cc(-c3cn4nc(OC)sc4n3)oc2c1 [Example 154, 6-(4-((2-(4-(4-Chlorophenyl)tetrahydro-2H-pyran-4-yl)thiazol-4-yl)methoxy)-6-methoxybenzofuran-2-yl)-2-methoxyimidazo[2,1-b][1,3,4]thiadiazole]",1.1
23,"COc1cc(OCc2csc(C3(c4cccc(Cl)c4)CCOCC3)n2)c2cc(-c3cn4nc(OC)sc4n3)oc2c1 [Example 155, 6-(4-((2-(4-(3-Chlorophenyl)tetrahydro-2H-pyran-4-yl)thiazol-4-yl)methoxy)-6-methoxybenzofuran-2-yl)-2-methoxyimidazo[2,1-b][1,3,4]thiadiazole]",0.62
24,"COc1cc(OCc2csc(C3(c4ccccc4F)CCOCC3)n2)c2cc(-c3cn4nc(OC)sc4n3)oc2c1 [Example 156, 6-(4-((2-(4-(2-Fluorophenyl)tetrahydro-2H-pyran-4-yl)thiazol-4-yl)methoxy)-6-methoxybenzofuran-2-yl)-2-methoxyimidazo[2,1-b][1,3,4]thiadiazole]",0.52
25,"COc1cc(OCc2csc(C3(c4ccc(C)cc4)CCOCC3)n2)c2cc(-c3cn4nc(OC)sc4n3)oc2c1 [Example 157, 2-Methoxy-6-(6-methoxy-4-((2-(4-(p-tolyl)tetrahydro-2H-pyran-4-yl)thiazol-4-yl)methoxy)benzofuran-2-yl)imidazo[2,1-b][1,3,4]thiadiazole]",3.6
26,"COc1cccc(C2(c3nc(COc4cc(OC)cc5oc(-c6cn7nc(OC)sc7n6)cc45)cs3)CCOCC2)c1 [Example 158, 2-Methoxy-6-(6-methoxy-4-((2-(4-(3-methoxyphenyl)tetrahydro-2H-pyran-4-yl)thiazol-4-yl)methoxy)benzofuran-2-yl)imidazo[2,1-b][1,3,4]thiadiazole]",0.95
27,"COc1ccc(C2(c3nc(COc4cc(OC)cc5oc(-c6cn7nc(OC)sc7n6)cc45)cs3)CCOCC2)cc1 [Example 159, 2-Methoxy-6-(6-methoxy-4-((2-(4-(4-methoxyphenyl)tetrahydro-2H-pyran-4-yl)thiazol-4-yl)methoxy)benzofuran-2-yl)imidazo[2,1-b][1,3,4]thiadiazole]",0.41
28,"COC(=O)c1ccc(C2(c3nc(COc4cc(OC)cc5oc(-c6cn7nc(OC)sc7n6)cc45)cs3)CCOCC2)cc1 [Example 160, Methyl 4-(4-(4-(((6-methoxy-2-(2-methoxyimidazo[2,1-b][1,3,4]thiadiazol-6-yl)benzofuran-4-yl)oxy)methyl)thiazol-2-yl)tetrahydro-2H-pyran-4-yl)benzoate]",0.5

# Same assay, conditions: H-Ala-Phe(4-F)-[…]NH2-induced calcium mobilization
row,Compound,EC50 [nM]
1,"COc1cc(OCc2csc(C3=CCC4(CC3)OCCO4)n2)c2cc(-c3cn4nc(OC)sc4n3)oc2c1 [Example 127, 6-(4-((2-(1,4-Dioxaspiro-[4.5]dec-7-en-8-yl)thiazol-4-yl)methoxy)-6-methoxybenzofuran-2-yl)-2-methoxyimidazo[2,1-b][1,3,4]thiadiazole]",1.6
